According to patent US9198433B2, “Substituted benzene fungicides” (E I DU PONT DE NEMOURS AND COMPANY, priority 2007, dated 2015):
Marks after values point to notes of the source that are not given here.

Columns and labels:
Assay type in all cases: in vivo
[1] = test system: Erysiphe graminis f. sp. tritici; assay: Test A: wheat powdery mildew, preventive spray on wheat seedlings, disease rating
Method in brief: (§1)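 Applied as preventive foliar sprays to wheat seedlings, to run-off. Formulation: acetone (3% of final volume) predissolution, then acetone/water 50/50 with surfactant at 250 ppm. Rates were 200 ppm except flagged values at 40 or 50 ppm.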

Alternaria solani = assay: Test H: tomato early blight, preventive spray on tomato seedlings, disease rating
Method in brief: (§2)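 Disease ratings follow a preventive run-off spray of tomato seedlings. Compounds were first dissolved in acetone (3% of volume), then suspended in 50/50 acetone/water containing 250 ppm Trem 014. Test level 200 ppm (equivalent to 500 g/ha) except where marked * for 40 ppm or ** for 50 ppm.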

Botrytis cinerea = assay: Test F: tomato Botrytis, preventive spray on tomato seedlings, disease rating
Method in brief: as §2

[2] = test system: Puccinia recondita f. sp. tritici; assay: Test B: wheat leaf rust, preventive spray on wheat seedlings, disease rating
Method in brief: as §1

Septoria nodorum = assay: Test C: wheat glume blotch, preventive spray on wheat seedlings, disease rating
Method in brief: as §1

Septoria tritici = assay: Test D: wheat leaf blotch, preventive spray on wheat seedlings, disease rating
Method in brief: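 Preventive test: one day after run-off spraying (200 ppm, equal to 500 g/ha, unless marked 40 or 50 ppm; acetone/water plus 250 ppm Trem 014), seedlings received S. tritici spore inoculum. Disease scored after 48 h at 24 °C in saturated air and 19 further days at 20 °C.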

| SMILES | Percentage Disease Control, Test A ([1]; 40 ppm (*)) | Percentage Disease Control, Test H (Alternaria solani; 40 ppm (*)) | Percentage Disease Control, Test F (Botrytis cinerea; 40 ppm (*)) | Percentage Disease Control, Test B ([2]; 40 ppm (*)) | Percentage Disease Control, Test C (Septoria nodorum; 40 ppm (*)) | Percentage Disease Control, Test D (Septoria tritici; 40 ppm (*)) | Percentage Disease Control, Test A ([1]; 200 ppm) | Percentage Disease Control, Test H (Alternaria solani; 200 ppm) | Percentage Disease Control, Test F (Botrytis cinerea; 200 ppm) | Percentage Disease Control, Test B ([2]; 200 ppm) | Percentage Disease Control, Test C (Septoria nodorum; 200 ppm) | Percentage Disease Control, Test D (Septoria tritici; 200 ppm) |
| --- | --- | --- | --- | --- | --- | --- | --- | --- | --- | --- | --- | --- |
| COC(=O)NCc1cc(-c2ccn(-c3ccccc3C(F)(F)F)n2)ccc1Cl [Cmpd 51] | 97* % | 60* % | 0* % | 99* % | 98* % | 100* % |  |  |  |  |  |  |
| COC(=O)NCc1cc(-c2ccn(-c3nc(-c4ccc(C(F)(F)F)cc4)ns3)n2)ccc1Cl [Cmpd 94] |  |  |  |  |  |  | 0% | 0% | 0% | 17% | 0% | 40% |
| COC(=O)NCc1cc(-c2ccn(Cc3cc(C(F)(F)F)ccc3Cl)n2)ccc1Cl [Cmpd 53] | 98* % | 92* % | 0* % | 99* % | 94* % | 99* % |  |  |  |  |  |  |
| COC(=O)NCc1cc(-c2ccn(Cc3ccc(Cl)cc3)n2)ccc1Cl [Cmpd 67] | 96* % | 96* % | 0* % | 99* % | 99* % | 100* % |  |  |  |  |  |  |
| COC(=O)NCc1cc(-c2ccn(Cc3cccc(Cl)c3)n2)ccc1Cl [Cmpd 60] | 98* % | 24* % | 0* % | 99* % | 99* % | 99* % |  |  |  |  |  |  |
| COC(=O)NCc1cc(-c2ccn(Cc3ccc(-c4ccccc4C#N)cc3)n2)ccc1Cl [Cmpd 55] | 88* % | 16* % | 0* % | 88* % | 92* % | 95* % |  |  |  |  |  |  |
| COC(=O)NCc1cc(-c2ccn(-c3nc(OC)ns3)n2)ccc1Cl [Cmpd 92] |  |  |  | 97* % | 92* % |  | 82% | 15% | 0% |  |  | 72% |
| COC(=O)NCc1cc(-n2ccc(-c3ccc(Cl)cc3)n2)ccc1Cl [Cmpd 122] | 100* % | 97* % |  | 100* % | 100* % | 100* % |  |  | 63% |  |  |  |
| COC(=O)NCc1cc(-c2ccn(-c3cc(C(F)(F)F)ccn3)n2)ccc1Cl [Cmpd 86] | 99* % | 9* % | 0* % | 100* % | 100* % | 98* % |  |  |  |  |  |  |
| COC(=O)NCc1cc(-c2ccn(-c3nc(C4CC4)ns3)n2)ccc1Cl [Cmpd 95] | 100* % |  | 90* % | 100* % | 100* % | 100* % |  | 25% |  |  |  |  |
| COC(=O)NCc1cc(C(C)=NOC[Si](C)(C)Cc2ccccc2)ccc1Cl [Compound 17] |  |  |  | 99* % |  | 100* % | 67% | 38% | 0% |  | 100% |  |
| COC(=O)NCc1cc(-c2ccn(CCC(=O)c3ccc(Cl)cc3)n2)ccc1Cl [Cmpd 56] | 89* % | 92* % | 0* % | 97* % | 97* % | 90* % |  |  |  |  |  |  |
| COC(=O)NCc1cc(-c2ccn(-c3cccc(OC)c3)n2)ccc1Cl [Cmpd 107] | 100* % | 99* % |  | 100* % | 100* % | 99* % |  |  | 89% |  |  |  |
| COC(=O)NCc1cc(-c2ccn(-c3cc(C(F)(F)F)cc(C(F)(F)F)c3)n2)ccc1Cl [Cmpd 78] | 100* % | 0* % | 33* % | 85* % | 0* % | 90* % |  |  |  |  |  |  |
